Experimental data: US9408393B2, “Bismuth-thiols as antiseptics for agricultural, industrial and other uses” (Microbion Corporation, priority 2010, dated 2016)
Where two headings read alike, the source gives them in different places.

Assays:
Escherichia coli = assay: Single-point BisEDT-antibiotic combination FICI; type: cell-based
Klebsiella pneumoniae = assay: Single-point BisEDT-antibiotic combination FICI; type: cell-based; details: KP 1231
Bukholderia multivorans = assay: Single-point BisEDT-antibiotic combination FICI; type: cell-based; details: Bmult 5665
Pseudomonas aeruginosa = assay: Single-point BisEDT-antibiotic combination FICI; type: cell-based; details: PA 1380
Burkholderia cepacia = assay: Single-point BisEDT-antibiotic combination FICI; type: cell-based; details: Bcep 1756
[1] = test system: Streptococcus pneumoniae (SP, PRSP); assay: Single-point BisEDT-antibiotic combination FICI; details: PRSP 5348
Acinetobacter baumanii = assay: Single-point BisEDT-antibiotic combination FICI; type: cell-based; details: Abau 2594
Enterococcus faecalis = assay: Single-point BisEDT-antibiotic combination FICI; type: cell-based; details: E Fc 3121
[2] = test system: Staphylococcus aureus (SA, MRSA); assay: Single-point BisEDT-antibiotic combination FICI; type: cell-based
P. aeruginosa = assay: Checkerboard broth microdilution MIC and FICI; type: cell-based, Pseudomonas aeruginosa; details: Pseudomonas aeruginosa, compound alone, read-out: MIC (μg/mL) Alone
Description: (§1) The effects of combinations of microparticulate Bis-EDT and four Bis-EDT analogs prepared as described above, and other agents against representative strains of several Gram-negative pathogenic bacteria were tested. A modification of a common laboratory method was used to determine synergism (FICI≦0.5), enhancement (0.5<FICI≦1.0), antagonism (FICI>4.0) and indifference (1.0<FICI≦4.0) used fractional inhibitory concentrations (FICs) and FIC indices (FICI) (Eliopoulos G and R Moellering. 1991. Antimicrobial combinations. In Antibiotics in Laboratory Medicine, Third Edition, edited by V Lorian. Williams and Wilkins, Baltimore, Md., pp. 432-492; Odds, 2003 J. Antimicrob. Chemother. 52(1):1). The checkerboard technique was used to determine FIC indices and was employed in this study.
(§2) Stock solutions of all test articles were prepared at 40× the final target concentration in the appropriate solvent. […] The final drug concentrations in the FIC assay plates were set to bracket the MIC value of each agent for each test organism, unless the strain was totally resistant to the test agent. […] The test organisms were originally received from clinical sources, or from the American Type Culture Collection. Upon receipt, the isolates were streaked onto Tryptic Soy Agar II (TSA). Colonies were harvested from these plates and a cell suspension was prepared in an appropriate broth growth medium containing cryoprotectant. Aliquots were then frozen at −80° C. The frozen seeds of the organisms to be tested in a given assay were thawed, streaked for isolation onto TSA plates, and incubated at 35° C. All organisms were tested in Mueller Hinton II Broth (Becton Dickinson, Lot No. 9044411). The broth was prepared at 1.05× normal weight/volume to offset the 5% volume of the drugs in the final test plates.
(§3) Minimal Inhibitory Concentration (MIC) values were previously determined using the broth microdilution method for aerobic bacteria (Clinical and Laboratory Standards Institute (CLSI). Methods for Dilution Antimicrobial Susceptibility Tests for Bacteria That Grow Aerobically; Approved Standard—Eighth Edition. CLSI document M07-A8 [ISBN 1-56238-689-1]. Clinical and Laboratory Standards Institute, 940 West Valley Road, Suite 1400, Wayne, Pa. 19087-1898 USA, 2009.).
(§4) FIC values were determined using a broth microdilution method previously described (Sweeney et al., 2003 Antimicrob. Agents Chemother. 47(6):1902-1906). To prepare the test plates, automated liquid handlers (Multidrop 384, Labsystems, Helsinki, Finland; Biomek 2000 and Multimek 96, Beckman Coulter, Fullerton Calif.) were used to conduct serial dilutions and liquid transfers.
(§5) The appropriate wells of standard 96-well microdilution plates (Falcon 3918) were filled with 150 μL of the appropriate solvent in columns 2-12 using the Multidrop 384. Three hundred microliters of each secondary test drug was added to each well in Column 1 of the plates. These plates were used to prepare the drug “mother plates” which provided the serial drug dilutions for the drug combination plates. The Biomek 2000 was used to transfer 150 μL of each secondary drug solution (40×) from the wells in Column 1 of the mother plate and to make eleven 2-fold serial dilutions. Mother plates of Bis-EDT (and analogs) were serial diluted top to bottom by hand, using a multichannel pipette. Two mother plates, one for each secondary drug and one for Bis-EDT (or analogs), were combined to form a “checkerboard” pattern by transfer of equal volumes (using a multi-channel pipette) to the drug combination plate. Row H and Column 12 each contained serial dilutions of one of the agents alone for determination of the MIC.
(§6) The “daughter plates” were loaded with 180 μL of test medium using the Multidrop 384. Then, the Multimek 96 was used to transfer 10 μL of drug solution from each well of the drug combination mother plate to each corresponding well of the daughter plate in a single step.

[3] = test system: Gram-negative pathogenic bacteria; assay: Checkerboard broth microdilution MIC and FICI; type: cell-based; details: compound alone; for MIC: Klebsiella pneumoniae, read-out: MIC (μg/mL) Alone
Description: as §1, §2, §3, §4, §5, §6

SMILES	FICI, single-point BisEDT-antibiotic combination (Escherichia coli; EC 102)	FICI, single-point BisEDT-antibiotic combination (Escherichia coli; EC 2232)	FICI, single-point BisEDT-antibiotic combination (Klebsiella pneumoniae)	FICI, single-point BisEDT-antibiotic combination (Bukholderia multivorans)	FICI, single-point BisEDT-antibiotic combination (Pseudomonas aeruginosa)	FICI, single-point BisEDT-antibiotic combination (Burkholderia cepacia)	FICI, single-point BisEDT-antibiotic combination [1]	FICI, single-point BisEDT-antibiotic combination (Acinetobacter baumanii)	FICI, single-point BisEDT-antibiotic combination (Enterococcus faecalis)	FICI, single-point BisEDT-antibiotic combination ([2]; MRSA 773)	FICI, single-point BisEDT-antibiotic combination ([2]; SA 100)	other results
CCN1CCN(C(=O)N[C@@H](C(=O)N[C@@H]2C(=O)N3[C@@H]2SC(C)(C)[C@@H]3C(=O)O)c2ccccc2)C(=O)C1=O [Piperacillin]	0.87	1.29	2.23	1.12	0.67	1.12	1.11	1.12	1.11	1.28	0.57	
C[C@H]1[C@H](NC(=O)/C(=N\OC(C)(C)C(=O)O)c2csc(N)n2)C(=O)N1S(=O)(=O)O [Aztreonam]	0.74	1.29	0.73	0.96	0.55	0.67		0.87				MIC (P. aeruginosa; P. aeruginosa 103): 8 µg/mL; MIC (P. aeruginosa; P. aeruginosa 1381): 64 µg/mL; MIC (P. aeruginosa; P. aeruginosa 1384): 8 µg/mL; MIC (P. aeruginosa; P. aeruginosa 1474): 8 µg/mL; MIC (P. aeruginosa; P. aeruginosa 1479): 8 µg/mL; MIC (P. aeruginosa; P. aeruginosa 2566): 16 µg/mL; MIC (P. aeruginosa; P. aeruginosa 2568): 8 µg/mL
CN(C)[C@@H]1C(O)=C(C(N)=O)C(=O)[C@@]2(O)C(O)=C3C(=O)c4c(O)cccc4[C@@](C)(O)[C@H]3C[C@@H]12 [Tetracycline]	0.62	0.79	1.29	1.12	1.29	1.96	0.34	1.12	0.92	1.23	0.89	
C[C@@H]1O[C@@H]1P(=O)(O)O [Phosphomycin]		1.96	1.02	1.23	1.86	1.29	1.45	1.12	1.23	0.61		
C[C@H]1COc2c(N3CCN(C)CC3)c(F)cc3c(=O)c(C(=O)O)cn1c23 [Levofloxacin]							0.70		1.08	1.11	1.23	
O=C(O)c1cn(C2CC2)c2cc(N3CCNCC3)c(F)cc2c1=O [Ciprofloxacin]	1.14			2.29	2.75	2.23		1.04				
CO/N=C(\C(=O)N[C@@H]1C(=O)N2C(C(=O)O)=C(COC(C)=O)CS[C@H]12)c1csc(N)n1 [Cefotaxime]	1.37	1.29	0.61	1.11	0.64	1.29	1.11	1.29	0.73	2.23	1.11	MIC (P. aeruginosa; P. aeruginosa 103): 16 µg/mL; MIC (μg/mL) Alone ([3]; K. pneumoniae 1355): 0.12 µg/mL; MIC (μg/mL) Alone ([3]; K. pneumoniae 2238): 8 µg/mL; MIC (μg/mL) Alone ([3]; K. pneumoniae 2549): 0.06 µg/mL; MIC ([3]; K. pneumoniae 1346): 0.06 µg/mL; MIC ([3]; K. pneumoniae 1355): 0.06 µg/mL; MIC ([3]; K. pneumoniae 2238): 16 µg/mL; MIC ([3]; K. pneumoniae 2546): 0.25 µg/mL; MIC ([3]; K. pneumoniae 2549): 0.12 µg/mL
CC[C@H]1OC(=O)[C@H](C)[C@@H](O[C@H]2C[C@@](C)(OC)[C@@H](O)[C@H](C)O2)[C@H](C)[C@@H](O[C@@H]2O[C@H](C)C[C@H](N(C)C)[C@H]2O)[C@](C)(O)C[C@@H](C)C(=O)[C@H](C)[C@@H](O)[C@]1(C)O [Erythromycin]							1.03		0.92	0.67		
